Read-outs that look alike come from different tables or passages of the source.
Legend:
full-length human PLD2 = full-length human PLD2 (Homo sapiens (Human), UniProt O14939); assay: Evaluation of human PLD2 enzyme inhibitory activity (Amplex Red / choline oxidase fluorescence); type: biochemical
Experimental: A method for measuring human PLD2 enzyme inhibitory activity using an enzyme in which a FLAG-tag is added to the N-terminus of full-length human PLD2 (1-933 amino acids) is shown below.
(§1) DNA fragment in which a FLAG-tag sequence is added to the 5′-end of full-length human PLD2 was amplified by PCR method, using commercially available human PLD2 gene (Promega KK) as a template. The amplified DNA fragment was fused with vector pVL1393 for baculovirus production (Pharmingen) digested with BamHI and EcoRI, using In-Fusion HD Cloning Kit (Takara Bio). The full-length human PLD2-expression plasmid DNA for baculovirus was isolated from Escherichia coli DH5a (TOYOBO) transformed with the obtained In-Fusion reaction product. Next, DNA fragment in which a FLAG-tag sequence is added to the 5′-end of full-length human PLD2 was amplified by PCR method, using the full-length human PLD2-expression plasmid DNA for baculovirus as a template. The amplified DNA fragment was fused with a DNA fragment in which a linker sequence is introduced into pcDNA3.4-TOPO (Life Technologies), using In-Fusion HD Cloning Kit (Takara Bio). The full-length human PLD2-expression plasmid DNA for animal cells was isolated from Escherichia coli DH5a transformed with the obtained In-Fusion reaction product. The base sequence of the full-length human PLD2 cloned into vector was determined by a Dye Terminator method using BigDye Terminator v3.1 Cycle Sequencing Kit (Applied Biosystems). The determined sequence was a sequence in which the FLAG-tag sequence was inserted at the 5′-end of the full-length human PLD2 (GenBank Accession Number: NM 002663).
(§2) Expi293F cells (Life Technologies) were cultured with shaking using Expi293 Expression Medium (Life Technologies) as a medium at 37° C. in the presence of 8% CO2. The gene introduction reagent PEI was prepared by dissolving Polyethylenimine Max (nominally MW 40,000) (Polysciences) in MilliQ water, adjusting the pH of the solution to 7.0 with NaOH to obtain a 1 mg/mL solution, and then filtering the solution through 0.22 μm filter. The full-length human PLD2-expression plasmid DNA for animal cells was transfected into Expi293F cells using PEI, and after 48 hours of shaking culture, the cells were collected and stored at −80° C.
(§3) To the full-length human PLD2-expressed cells was added a Homogenate buffer (20 mmol/L Na-phosphate pH 7.5, 250 mmol/L NaCl, 1 mmol/L MgCl2, 1% β-OG, 0.05 mmol/L DTT+complete EDTA-free (Roche Diagnostics K.K.)), and the cells were lysed by Microfluidizer Processor M-110EH (Mizuho Kogyo Co., Ltd.). The lysate was centrifuged at 10,100×g at 4° C. for 15 minutes, and the supernatant was collected and filtered through 0.45 μm filter. To the centrifuged supernatant was added ANTI-FLAG M2 Affinity Gel (SIGMA-Aldrich) resin equilibrated with a Homogenate buffer, and the mixed solution was stirred at 4° C. for 1 hr or more. The mixed solution was loaded onto Poly-Prep column, and the resin was washed with a Wash buffer (20 mmol/L Na-phosphate pH 7.5, 150 mmol/L NaCl, 1 mmol/L MgCl2, 0.02% Triton, 0.05 mmol/L DTT). A Wash buffer containing 400 μg/mL DYKDDDDK Peptide (Scrum Inc.) was added to the column to elute the protein bound to the resin. The eluted fractions were subjected to SDS-PAGE followed by CBB staining to identify the fractions containing the full-length human PLD2. The eluted fractions of the full-length human PLD2 were collected and concentrated using Amicon Ultra-15 100k (Merck Millipore). The concentrated fractions were collected, flash-frozen in liquid nitrogen and stored at −80° C.
(§4) A DMSO or test substance solution (the DMSO final concentration: 5%) prepared by diluting DMSO or test substance with an Assay buffer (50 mmol/L HEPES pH 7.5, 80 mmol/L KCl, 3 mmol/L EGTA, 3.6 mmol/L MgCl2, 0.01% NP-40, 0.1% BSA), and the solution was added to a 384 well Assay Plate (Black, Polystyrene, Non-Treated, Cat No. 3573, Corning) by 5 μL/well. […]

full-length human PLD1 = full-length human PLD1 (Homo sapiens (Human), UniProt Q13393); assay: Evaluation of human PLD1 enzyme inhibitory activity (Amplex Red / choline oxidase fluorescence); type: biochemical
Experimental: A method for measuring human PLD1 enzyme inhibitory activity using an enzyme in which a FLAG-tag is added to the N-terminus of full-length human PLD1 (1-1036 amino acids) is shown below.
as §1, with “PLD1” for “PLD2”, “PLD1-expression” for “PLD2-expression”, “NM_001130081).” for “NM 002663).”
as §2, with “PLD1-expression” for “PLD2-expression”
as §3, with “PLD1-expressed” for “PLD2-expressed”, “PLD1.” for “PLD2.”, “PLD1” for “PLD2”
as §4

[1] = full-length human PLD2 enzyme, read-out: PLD2 IC50
[2] = full-length human PLD1 enzyme, read-out: PLD1 IC50

Chain of full-length human PLD1 (Q13393 other isoform, or with tags, fused parts or gaps): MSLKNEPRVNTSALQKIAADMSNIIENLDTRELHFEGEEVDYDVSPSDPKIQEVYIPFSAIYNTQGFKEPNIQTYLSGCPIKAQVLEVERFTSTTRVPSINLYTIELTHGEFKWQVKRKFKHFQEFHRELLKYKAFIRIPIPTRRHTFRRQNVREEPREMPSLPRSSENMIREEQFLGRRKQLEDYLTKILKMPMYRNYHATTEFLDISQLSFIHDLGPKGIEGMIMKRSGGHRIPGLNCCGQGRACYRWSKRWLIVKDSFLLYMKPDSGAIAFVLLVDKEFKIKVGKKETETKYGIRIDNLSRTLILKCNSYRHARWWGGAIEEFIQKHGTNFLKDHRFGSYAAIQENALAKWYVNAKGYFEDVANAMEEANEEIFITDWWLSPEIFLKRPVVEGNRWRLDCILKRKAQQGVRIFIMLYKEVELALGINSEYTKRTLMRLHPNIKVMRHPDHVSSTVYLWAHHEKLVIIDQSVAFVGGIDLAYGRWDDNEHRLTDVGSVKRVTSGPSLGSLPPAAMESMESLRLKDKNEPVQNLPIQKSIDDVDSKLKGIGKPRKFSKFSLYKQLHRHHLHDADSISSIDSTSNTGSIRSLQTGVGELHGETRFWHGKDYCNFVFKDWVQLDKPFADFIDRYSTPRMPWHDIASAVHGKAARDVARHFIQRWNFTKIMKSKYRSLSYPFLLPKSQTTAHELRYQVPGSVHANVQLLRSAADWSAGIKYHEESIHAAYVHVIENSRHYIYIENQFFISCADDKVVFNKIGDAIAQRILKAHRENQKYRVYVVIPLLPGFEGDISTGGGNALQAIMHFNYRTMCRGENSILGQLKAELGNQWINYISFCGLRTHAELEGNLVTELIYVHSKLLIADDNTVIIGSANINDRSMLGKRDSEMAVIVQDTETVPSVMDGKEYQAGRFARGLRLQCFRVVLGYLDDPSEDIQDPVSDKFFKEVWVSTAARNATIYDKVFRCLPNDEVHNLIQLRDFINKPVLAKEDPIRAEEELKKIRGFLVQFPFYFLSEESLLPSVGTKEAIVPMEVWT
Chain of full-length human PLD2 (O14939 whole entry, the tested form may be a part): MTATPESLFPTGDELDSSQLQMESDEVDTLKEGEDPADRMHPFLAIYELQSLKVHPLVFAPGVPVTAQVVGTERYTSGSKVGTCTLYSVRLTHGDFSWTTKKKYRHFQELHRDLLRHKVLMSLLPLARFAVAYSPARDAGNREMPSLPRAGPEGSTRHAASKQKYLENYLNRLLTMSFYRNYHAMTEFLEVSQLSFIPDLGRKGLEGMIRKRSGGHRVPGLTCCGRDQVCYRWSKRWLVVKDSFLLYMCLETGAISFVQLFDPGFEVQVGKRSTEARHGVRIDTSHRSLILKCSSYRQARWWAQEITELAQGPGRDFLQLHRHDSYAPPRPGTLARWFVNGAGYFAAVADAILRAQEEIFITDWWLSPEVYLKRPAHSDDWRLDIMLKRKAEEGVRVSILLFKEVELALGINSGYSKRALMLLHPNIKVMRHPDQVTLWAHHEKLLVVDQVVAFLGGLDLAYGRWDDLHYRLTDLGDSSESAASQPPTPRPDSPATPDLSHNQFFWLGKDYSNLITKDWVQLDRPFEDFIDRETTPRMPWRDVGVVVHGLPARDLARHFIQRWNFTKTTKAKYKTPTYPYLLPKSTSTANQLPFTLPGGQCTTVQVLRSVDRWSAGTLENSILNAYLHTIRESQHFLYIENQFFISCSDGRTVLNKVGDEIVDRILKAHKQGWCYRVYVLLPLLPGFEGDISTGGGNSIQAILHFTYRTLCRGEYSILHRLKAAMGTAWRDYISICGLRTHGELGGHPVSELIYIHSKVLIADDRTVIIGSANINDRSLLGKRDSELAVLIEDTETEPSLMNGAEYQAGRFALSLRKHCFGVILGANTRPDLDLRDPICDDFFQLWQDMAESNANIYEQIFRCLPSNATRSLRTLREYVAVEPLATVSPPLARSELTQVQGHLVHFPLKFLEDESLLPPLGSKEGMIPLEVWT

C[C@@H](C[C@H]1CC[C@]2(CC1)OC(=O)NN=C2c1ccc(F)cc1Br)NC(=O)CC#N [Example 41]
IC50 (full-length human PLD2; [1]): 500 nM
IC50 (full-length human PLD1; [2]): 229 nM

CNC(=O)C(=O)NC[C@@H](C)N1CCC2(CC1)OC(=O)NN=C2c1ccc(C#N)cc1Br [Example 330]
IC50 (full-length human PLD2; [1]): 26 nM
IC50 (full-length human PLD1; [2]): 3150 nM

C[C@@H](C[C@H]1CC[C@]2(CC1)OC(=O)NN=C2c1cc(C#N)ccc1Br)NC(=O)C(=O)O [Example 2-171]
inhibition at 10 µM (full-length human PLD2; read-out: human PLD2 % inhibition at 10 μM): 23%
inhibition at 10 µM (full-length human PLD2; read-out: inhibition rate of PLD2 at 10 μM compound): 23%
inhibition at 10 µM (full-length human PLD1; read-out: human PLD1 % inhibition at 10 μM): 12%
inhibition at 10 µM (full-length human PLD1; read-out: inhibition rate of PLD1 at 10 μM compound): 12%

Cc1cc(C(=O)N[C@@H](C)C[C@H]2CC[C@]3(CC2)OC(=O)NN=C3c2ccc(Br)cc2)[nH]n1 [Example 22]
IC50 (full-length human PLD2; [1]): 49 nM
IC50 (full-length human PLD1; [2]): 66 nM

C[C@@H](C[C@H]1CC[C@]2(CC1)OC(=O)NN=C2c1cccc(C#N)c1Br)NC(=O)C(=O)NC1CC1 [Example 316]
IC50 (full-length human PLD2; [1]): 61 nM
IC50 (full-length human PLD1; [2]): 46 nM

CC(C)=CC(=O)N[C@@H](C)CN1CCC2(CC1)OC(=O)NN=C2c1cc(C#N)ccc1Br [Example 2-022]
IC50 (full-length human PLD2; [1]): 388 nM
IC50 (full-length human PLD1; [2]): 738 nM

CNC(=O)C(=O)N[C@@H](C)C[C@]1(C#N)CC[C@@]2(CC1)OC(=O)NN=C2c1cc(OC(F)(F)F)ccc1Br [Example 2-080]
IC50 (full-length human PLD2; [1]): < 10 nM
IC50 (full-length human PLD1; [2]): < 10 nM

CSc1ccc(C2=NNC(=O)OC23CCN(C[C@H](C)NC(=O)c2cc4cc(F)ccc4o2)CC3)c(Cl)c1 [Example 115]
IC50 (full-length human PLD2; [1]): < 10 nM
IC50 (full-length human PLD1; [2]): 15 nM

C[C@@H](C[C@H]1CC[C@]2(CC1)OC(=O)NN=C2c1ccc(F)cc1Br)NC(=O)c1ccccc1 [Example 40]
IC50 (full-length human PLD2; [1]): < 10 nM
IC50 (full-length human PLD1; [2]): 13 nM

CNC(=O)C(=O)N[C@@H](C)C[C@H]1CC[C@]2(CC1)OC(=O)NN=C2c1ccc(F)cc1 [Example 6]
IC50 (full-length human PLD2; [1]): 120 nM
IC50 (full-length human PLD1; [2]): 69 nM

Cc1cc(C(=O)N[C@@H](C)C[C@H]2CC[C@]3(CC2)OC(=O)NN=C3c2ccc(F)cc2Cl)[nH]n1 [Example 45]
IC50 (full-length human PLD2; [1]): 23 nM
IC50 (full-length human PLD1; [2]): 27 nM

Cc1cc(C(=O)N[C@@H](C)C[C@H]2CC[C@]3(CC2)OC(=O)NN=C3c2cc(OC(F)F)ccc2Br)[nH]n1 [Example 214]
IC50 (full-length human PLD2; [1]): < 10 nM
IC50 (full-length human PLD1; [2]): < 10 nM

Cc1cc(C(=O)N[C@@H](C)C[C@H]2CC[C@]3(CC2)OC(=O)NN=C3c2cnc(Cl)cc2N2CCOCC2)[nH]n1 [Example 225]
IC50 (full-length human PLD2; [1]): 203 nM
IC50 (full-length human PLD1; [2]): 513 nM

C[C@@H](C[C@H]1CC[C@]2(CC1)OC(=O)NN=C2c1cccc2c1OCC2)NC(=O)c1cc(Cl)no1 [Example 108]
IC50 (full-length human PLD2; [1]): 38 nM
IC50 (full-length human PLD1; [2]): 25 nM

CNC(=O)C(=O)N[C@@H](C)C[C@H]1CC[C@]2(CC1)OC(=O)NN=C2c1cc(C(=O)NC)ccc1Br [Example 2-035]
IC50 (full-length human PLD2; [1]): < 10 nM
IC50 (full-length human PLD1; [2]): 21 nM

C[C@@H](CN1CCC2(CC1)OC(=O)NN=C2c1cc(C#N)ccc1Br)NC(=O)c1cc(F)c[nH]1 [Example 302]
IC50 (full-length human PLD2; [1]): < 10 nM
IC50 (full-length human PLD1; [2]): 17 nM

[2H]C([2H])([2H])NC(=O)C(=O)N[C@@H](C)C[C@]1(OC)CC[C@@]2(CC1)OC(=O)NN=C2c1ccc(C#N)cc1Br [Example 2-130]
IC50 (full-length human PLD2; column 2 of continuation tables 2-12 to 2-14, read-out: human PLD2 enzyme inhibitory activity IC50): < 10 nM
IC50 (full-length human PLD1; column 1 of continuation tables 2-12 to 2-14, read-out: human PLD1 enzyme inhibitory activity IC50): 32 nM

CNC(=O)C(=O)N[C@@H](C)[C@@H](C)N1CCC2(CC1)OC(=O)NN=C2c1ccc(F)cc1Br [Example 291]
IC50 (full-length human PLD2; [1]): 234 nM
IC50 (full-length human PLD1; [2]): 150 nM

CNC(=O)C(=O)N[C@H](CN1CCC2(CC1)OC(=O)NN=C2c1cc(C#N)ccc1Br)C(F)(F)F [Example 2-017]
IC50 (full-length human PLD2; [1]): 45 nM
IC50 (full-length human PLD1; [2]): 99 nM

CNC(=O)C(=O)N[C@@H](C)C[C@H]1CC[C@]2(CC1)OC(=O)NN=C2c1ccc(F)cc1C(C)C [Example 133]
IC50 (full-length human PLD2; [1]): 31 nM
IC50 (full-length human PLD1; [2]): 29 nM

CNC(=O)C(=O)N[C@@H](C)C[C@H]1CC[C@]2(CC1)OC(=O)NN=C2c1ccc(C(C)=O)cc1C [Example 167]
IC50 (full-length human PLD2; [1]): < 10 nM
IC50 (full-length human PLD1; [2]): 20 nM

CNC(=O)C(=O)N[C@@H](C)C[C@H]1CC[C@]2(CC1)OC(=O)NN=C2c1ccc(Br)cc1 [Example 23]
IC50 (full-length human PLD2; [1]): 51 nM
IC50 (full-length human PLD1; [2]): 39 nM

CNC(=O)C(=O)N[C@@H](C)C[C@]1(C#N)CC[C@@]2(CC1)OC(=O)NN=C2c1ccc(C#N)cc1Br [Example 2-065]
IC50 (full-length human PLD2; [1]): < 10 nM
IC50 (full-length human PLD1; [2]): 21 nM

Cc1cc(C(=O)NC(C)CN2CCC3(CC2)OC(=O)NN=C3c2cccc(F)c2Br)[nH]n1 (stereo not shown) [Example 2-031]
IC50 (full-length human PLD2; [1]): < 10 nM
IC50 (full-length human PLD1; [2]): 19 nM

C[C@@H](C[C@H]1CC[C@]2(CC1)OC(=O)NN=C2c1cc(OCC(F)(F)F)ccc1Br)NC(=O)C(=O)NC1CC1 [Example 297]
IC50 (full-length human PLD2; [1]): < 10 nM
IC50 (full-length human PLD1; [2]): 13 nM

— US20240101572A1, “DIHYDROOXADIAZINONE COMPOUND AND PHARMACEUTICAL USE THEREOF” (Japan Tobacco Inc., priority 2022, published 2024)
